Experimental data from patent publication US20100004234A1, “SPECIFIC KINASE INHIBITORS” (Kosan Biosciences Incorporated, priority 2004, published 2010).

How the values were obtained:
Experiment in all cases: Kinase panel, residual activity
Type in all cases: biochemical
Details in all cases: read-out: Percent residual activity
[1] = target: ALK(h) (Homo sapiens, UniProt Q9UM73)
Protocol: (§1) In this panel of 124 kinases, 18 of the 19 kinases identified as having an active site cysteine were inhibited to some extent by hypothemycin at a concentration of 0.2 μM and/or 2 μM.

[2] = target: Axl(h) (Homo sapiens, UniProt P30530)
Protocol: as §1

[3] = target: CDK7/cyclinH/MAT1(h) (Homo sapiens, UniProt P50613)
Protocol: as §1

[4] = target: CHK2(h) (Homo sapiens, UniProt O96017)
Protocol: as §1

[5] = target: CK1δ(h) (Homo sapiens, UniProt P48730)
Protocol: as §1

[6] = target: CaMKIV(h) (Homo sapiens, UniProt Q16566)
Protocol: as §1

[7] = target: DDR2(h) (Homo sapiens, UniProt Q16832)
Protocol: as §1

[8] = target: EphB2(h) (Homo sapiens, UniProt P29323)
Protocol: as §1

[9] = target: FGFR1(h) (Homo sapiens, UniProt P11362)
Protocol: as §1

[10] = target: Fgr(h) (Homo sapiens, UniProt P09769)
Protocol: as §1

[11] = target: GSK3α(h) (Homo sapiens, UniProt P49840)
Protocol: as §1

[12] = target: IGF-1R(h) (Homo sapiens, UniProt P08069)
Protocol: as §1

[13] = target: IKKβ(h) (Homo sapiens, UniProt O14920)
Protocol: as §1

[14] = target: IR(h) (Homo sapiens, UniProt P06213)
Protocol: as §1

[15] = target: JNK3(h) (Homo sapiens, UniProt P53779)
Protocol: as §1

[16] = target: Lck(h) (Homo sapiens, UniProt P06239)
Protocol: as §1

[17] = target: MEK1(h) (Homo sapiens, UniProt Q02750)
Protocol: as §1

[18] = target: MINK(h) (Homo sapiens, UniProt Q8N4C8)
Protocol: as §1

[19] = target: MST2(h) (Homo sapiens, UniProt Q13188)
Protocol: as §1

[20] = target: Met(h) (Homo sapiens, UniProt P08581)
Protocol: as §1

[21] = target: PAK2(h) (Homo sapiens, UniProt Q13177)
Protocol: as §1

[22] = target: PDGFRβ(h) (Homo sapiens, UniProt P09619)
Protocol: as §1

[23] = target: PDK1(h) (Homo sapiens, UniProt O15530)
Protocol: as §1

[24] = target: PKCγ(h) (Homo sapiens, UniProt P05129)
Protocol: as §1

[25] = target: PKCε(h) (Homo sapiens, UniProt Q02156)
Protocol: as §1

[26] = target: PKCζ(h) (Homo sapiens, UniProt Q05513)
Protocol: as §1

[27] = target: PKCθ(h) (Homo sapiens, UniProt Q04759)
Protocol: as §1

[28] = target: Plk3(h) (Homo sapiens, UniProt Q9H4B4)
Protocol: as §1

[29] = target: Ron(h) (Homo sapiens, UniProt Q04912)
Protocol: as §1

[30] = target: Ros(h) (Homo sapiens, UniProt P08922)
Protocol: as §1

[31] = target: Rsk2(h) (Homo sapiens, UniProt P51812)
Protocol: as §1

[32] = target: SAPK2b(h) (Homo sapiens, UniProt Q15759)
Protocol: as §1

[33] = target: SAPK4(h) (Homo sapiens, UniProt O15264)
Protocol: as §1

[34] = target: SGK(h) (Homo sapiens, UniProt O00141)
Protocol: as §1

[35] = target: TAK1(h) (Homo sapiens, UniProt O43318)
Protocol: as §1

[36] = target: TrkA(h) (Homo sapiens, UniProt P04629)
Protocol: as §1

[37] = target: Yes(h) (Homo sapiens, UniProt P07947)
Protocol: as §1

[38] = target: ZAP-70(h) (Homo sapiens, UniProt P43403)
Protocol: as §1

TAK1(h), sequence (O43318 1-303 limits assumed): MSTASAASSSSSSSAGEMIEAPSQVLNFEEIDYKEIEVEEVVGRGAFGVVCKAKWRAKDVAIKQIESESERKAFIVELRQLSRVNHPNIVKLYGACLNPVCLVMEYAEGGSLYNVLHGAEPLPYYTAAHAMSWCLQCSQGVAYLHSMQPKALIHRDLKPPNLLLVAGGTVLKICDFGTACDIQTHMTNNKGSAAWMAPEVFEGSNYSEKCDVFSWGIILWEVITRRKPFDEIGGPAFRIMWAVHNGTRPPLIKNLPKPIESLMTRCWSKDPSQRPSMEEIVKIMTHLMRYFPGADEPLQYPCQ
TAK1(h), sequence (Q15750 437-504 partner limits assumed): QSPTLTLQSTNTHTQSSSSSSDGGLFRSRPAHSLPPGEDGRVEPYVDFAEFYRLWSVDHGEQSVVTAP
TrkA(h), sequence (P04629 33-796): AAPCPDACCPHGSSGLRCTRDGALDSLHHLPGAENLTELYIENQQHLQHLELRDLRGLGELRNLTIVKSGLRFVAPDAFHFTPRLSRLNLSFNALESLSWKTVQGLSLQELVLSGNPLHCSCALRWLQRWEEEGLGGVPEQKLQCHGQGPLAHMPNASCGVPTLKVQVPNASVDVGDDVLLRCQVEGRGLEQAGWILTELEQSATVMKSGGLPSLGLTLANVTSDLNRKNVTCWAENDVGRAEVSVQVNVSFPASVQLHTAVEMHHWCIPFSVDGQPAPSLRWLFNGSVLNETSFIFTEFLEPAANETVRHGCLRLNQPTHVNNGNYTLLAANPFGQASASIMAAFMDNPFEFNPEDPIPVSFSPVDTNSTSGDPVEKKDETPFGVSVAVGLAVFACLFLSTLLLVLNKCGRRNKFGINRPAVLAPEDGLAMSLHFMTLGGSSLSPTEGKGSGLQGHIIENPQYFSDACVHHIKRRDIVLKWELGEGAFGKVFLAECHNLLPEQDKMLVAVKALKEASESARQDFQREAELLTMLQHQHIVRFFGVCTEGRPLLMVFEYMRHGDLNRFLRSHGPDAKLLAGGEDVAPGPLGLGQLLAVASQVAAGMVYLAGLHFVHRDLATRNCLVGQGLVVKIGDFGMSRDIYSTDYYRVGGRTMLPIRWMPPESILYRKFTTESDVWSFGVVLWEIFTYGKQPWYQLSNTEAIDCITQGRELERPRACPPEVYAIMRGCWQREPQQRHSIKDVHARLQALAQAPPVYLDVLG
IKKβ(h), sequence (O14920 whole entry): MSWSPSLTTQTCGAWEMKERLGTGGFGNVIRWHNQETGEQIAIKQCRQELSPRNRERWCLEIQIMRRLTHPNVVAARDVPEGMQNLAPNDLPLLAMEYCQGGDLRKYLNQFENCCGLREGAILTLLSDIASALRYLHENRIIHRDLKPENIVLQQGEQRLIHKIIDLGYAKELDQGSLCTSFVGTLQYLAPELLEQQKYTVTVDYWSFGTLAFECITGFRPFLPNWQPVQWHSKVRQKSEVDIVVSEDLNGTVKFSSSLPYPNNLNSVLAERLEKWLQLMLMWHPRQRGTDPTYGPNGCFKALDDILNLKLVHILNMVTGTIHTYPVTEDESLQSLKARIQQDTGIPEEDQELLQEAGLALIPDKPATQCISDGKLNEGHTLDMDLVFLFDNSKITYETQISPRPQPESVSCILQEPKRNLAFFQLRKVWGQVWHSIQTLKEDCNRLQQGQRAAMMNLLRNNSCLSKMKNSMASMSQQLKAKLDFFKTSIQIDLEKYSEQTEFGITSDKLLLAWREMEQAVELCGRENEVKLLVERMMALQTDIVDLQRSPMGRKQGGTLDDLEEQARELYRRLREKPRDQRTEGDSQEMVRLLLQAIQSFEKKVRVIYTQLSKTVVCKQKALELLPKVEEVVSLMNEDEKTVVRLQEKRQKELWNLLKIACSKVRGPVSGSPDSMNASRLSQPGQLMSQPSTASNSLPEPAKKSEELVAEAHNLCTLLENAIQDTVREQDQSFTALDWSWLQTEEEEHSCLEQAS
MEK1(h), sequence (Q02750 whole entry): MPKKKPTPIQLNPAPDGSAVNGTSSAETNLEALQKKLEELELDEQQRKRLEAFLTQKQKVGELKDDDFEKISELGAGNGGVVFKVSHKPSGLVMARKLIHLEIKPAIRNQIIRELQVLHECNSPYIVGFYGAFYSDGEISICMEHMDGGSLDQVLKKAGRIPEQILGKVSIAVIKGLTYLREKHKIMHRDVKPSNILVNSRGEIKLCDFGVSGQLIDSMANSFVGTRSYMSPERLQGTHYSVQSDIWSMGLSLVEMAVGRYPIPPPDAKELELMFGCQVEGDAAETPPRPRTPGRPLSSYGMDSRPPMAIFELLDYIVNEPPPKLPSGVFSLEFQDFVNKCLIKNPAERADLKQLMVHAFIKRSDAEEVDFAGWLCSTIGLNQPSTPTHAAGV
GSK3α(h), sequence (P49840 whole entry): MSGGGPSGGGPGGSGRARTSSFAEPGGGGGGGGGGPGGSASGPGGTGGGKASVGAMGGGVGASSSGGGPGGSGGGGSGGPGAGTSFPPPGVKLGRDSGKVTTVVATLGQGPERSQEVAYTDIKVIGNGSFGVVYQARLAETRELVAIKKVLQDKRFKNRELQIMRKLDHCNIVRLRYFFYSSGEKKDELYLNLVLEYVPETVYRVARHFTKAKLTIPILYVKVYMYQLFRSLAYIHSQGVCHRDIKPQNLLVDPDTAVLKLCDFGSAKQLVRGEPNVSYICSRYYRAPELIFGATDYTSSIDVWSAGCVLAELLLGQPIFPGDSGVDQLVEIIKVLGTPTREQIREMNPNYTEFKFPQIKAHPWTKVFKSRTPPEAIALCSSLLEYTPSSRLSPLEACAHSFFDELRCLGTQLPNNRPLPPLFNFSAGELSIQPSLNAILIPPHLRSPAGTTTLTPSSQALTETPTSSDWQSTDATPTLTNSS
PDGFRβ(h), sequence (P09619 33-1106): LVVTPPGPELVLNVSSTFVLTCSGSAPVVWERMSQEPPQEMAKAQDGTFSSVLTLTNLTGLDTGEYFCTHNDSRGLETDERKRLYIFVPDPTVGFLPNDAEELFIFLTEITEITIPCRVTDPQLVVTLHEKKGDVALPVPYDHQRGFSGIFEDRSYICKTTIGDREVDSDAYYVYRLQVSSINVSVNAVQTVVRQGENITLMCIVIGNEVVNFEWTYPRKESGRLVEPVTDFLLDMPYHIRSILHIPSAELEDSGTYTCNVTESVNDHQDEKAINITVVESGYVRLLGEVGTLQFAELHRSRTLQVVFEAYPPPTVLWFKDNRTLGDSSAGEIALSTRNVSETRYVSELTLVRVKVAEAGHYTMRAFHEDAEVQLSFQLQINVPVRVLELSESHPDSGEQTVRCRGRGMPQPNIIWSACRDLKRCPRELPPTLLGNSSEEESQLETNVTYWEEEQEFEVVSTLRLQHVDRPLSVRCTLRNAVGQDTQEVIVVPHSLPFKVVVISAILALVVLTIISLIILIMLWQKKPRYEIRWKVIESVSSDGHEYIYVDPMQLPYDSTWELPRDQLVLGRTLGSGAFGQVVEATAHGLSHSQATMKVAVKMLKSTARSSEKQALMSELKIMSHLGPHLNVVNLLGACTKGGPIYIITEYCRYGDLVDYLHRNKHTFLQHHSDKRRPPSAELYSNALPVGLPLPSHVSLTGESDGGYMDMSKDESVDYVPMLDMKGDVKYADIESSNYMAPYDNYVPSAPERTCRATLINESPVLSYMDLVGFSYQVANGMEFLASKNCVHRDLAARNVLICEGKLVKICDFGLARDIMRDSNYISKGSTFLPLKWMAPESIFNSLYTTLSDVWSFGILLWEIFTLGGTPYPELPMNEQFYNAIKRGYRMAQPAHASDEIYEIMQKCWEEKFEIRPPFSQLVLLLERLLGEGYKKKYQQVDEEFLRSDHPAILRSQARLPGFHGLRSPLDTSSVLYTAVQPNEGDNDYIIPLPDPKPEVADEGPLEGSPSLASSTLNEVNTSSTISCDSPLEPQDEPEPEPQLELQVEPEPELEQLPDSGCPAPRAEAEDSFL
ZAP-70(h), sequence (P43403 whole entry): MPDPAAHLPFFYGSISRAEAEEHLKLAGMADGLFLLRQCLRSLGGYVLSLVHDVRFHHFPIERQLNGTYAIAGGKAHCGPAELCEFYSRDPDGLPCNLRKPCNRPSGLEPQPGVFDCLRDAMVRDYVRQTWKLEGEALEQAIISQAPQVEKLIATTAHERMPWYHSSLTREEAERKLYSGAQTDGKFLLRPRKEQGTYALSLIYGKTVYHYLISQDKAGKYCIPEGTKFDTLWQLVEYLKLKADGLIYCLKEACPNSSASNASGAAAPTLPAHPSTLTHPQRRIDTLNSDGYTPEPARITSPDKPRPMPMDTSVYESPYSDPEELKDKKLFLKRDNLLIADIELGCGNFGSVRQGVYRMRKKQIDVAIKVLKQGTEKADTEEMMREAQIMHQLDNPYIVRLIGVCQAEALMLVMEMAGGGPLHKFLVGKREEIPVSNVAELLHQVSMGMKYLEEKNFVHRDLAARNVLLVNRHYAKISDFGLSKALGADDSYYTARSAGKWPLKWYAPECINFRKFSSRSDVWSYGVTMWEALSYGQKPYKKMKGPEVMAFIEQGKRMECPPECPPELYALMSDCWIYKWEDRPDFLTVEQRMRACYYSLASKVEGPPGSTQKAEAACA
CK1δ(h), sequence (P48730 whole entry): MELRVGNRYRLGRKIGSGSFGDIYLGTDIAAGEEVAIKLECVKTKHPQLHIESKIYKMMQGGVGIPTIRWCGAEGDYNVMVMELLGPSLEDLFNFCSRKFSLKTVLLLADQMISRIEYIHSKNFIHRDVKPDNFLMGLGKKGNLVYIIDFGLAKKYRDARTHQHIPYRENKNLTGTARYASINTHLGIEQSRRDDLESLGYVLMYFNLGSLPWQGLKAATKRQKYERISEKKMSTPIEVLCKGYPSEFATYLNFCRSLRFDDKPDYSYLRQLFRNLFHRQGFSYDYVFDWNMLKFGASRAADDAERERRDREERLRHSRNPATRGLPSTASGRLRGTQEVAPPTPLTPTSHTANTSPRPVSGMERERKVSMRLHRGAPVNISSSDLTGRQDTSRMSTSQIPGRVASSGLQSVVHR

Structure (SMILES): COc1cc(O)c2c(c1)[C@H]1O[C@@H]1C[C@H](O)[C@H](O)C(=O)/C=C\C[C@H](C)OC2=O [Hypothemycin, hypothemycin]
- remaining activity at 0.2 µM [1]: 101%
- remaining activity at 0.2 µM [2]: 110%
- remaining activity at 0.2 µM [3]: 101%
- remaining activity at 0.2 µM [4]: 97%
- remaining activity at 0.2 µM [5]: 105%
- remaining activity at 0.2 µM [6]: 102%
- remaining activity at 0.2 µM [7]: 92%
- remaining activity at 0.2 µM [8]: 118%
- remaining activity at 0.2 µM [9]: 99%
- remaining activity at 0.2 µM [10]: 100%
- remaining activity at 0.2 µM ([11]; 0.2 μM): 90%
- remaining activity at 2 µM ([11]; 2.0 μM): 88%
- remaining activity at 0.2 µM [12]: 107%
- remaining activity at 0.2 µM ([13]; 0.2 μM): 81%
- remaining activity at 2 µM ([13]; 2.0 μM): 94%
- remaining activity at 0.2 µM [14]: 100%
- remaining activity at 0.2 µM [15]: 76%
- remaining activity at 0.2 µM [16]: 98%
- remaining activity at 0.2 µM ([17]; 0.2 μM): 54%
- remaining activity at 2 µM ([17]; 2.0 μM): 8%
- remaining activity at 0.2 µM [18]: 88%
- remaining activity at 0.2 µM [19]: 94%
- remaining activity at 0.2 µM [20]: 96%
- remaining activity at 0.2 µM [21]: 104%
- remaining activity at 0.2 µM ([22]; 0.2 μM): 73%
- remaining activity at 2 µM ([22]; 2.0 μM): 40%
- remaining activity at 0.2 µM [23]: 93%
- remaining activity at 0.2 µM [24]: 98%
- remaining activity at 0.2 µM [25]: 106%
- remaining activity at 0.2 µM [26]: 94%
- remaining activity at 0.2 µM [27]: 104%
- remaining activity at 0.2 µM [28]: 101%
- remaining activity at 0.2 µM [29]: 91%
- remaining activity at 0.2 µM [30]: 97%
- remaining activity at 0.2 µM [31]: 91%
- remaining activity at 0.2 µM [32]: 104%
- remaining activity at 0.2 µM [33]: 101%
- remaining activity at 0.2 µM [34]: 99%
- remaining activity at 0.2 µM ([35]; 0.2 μM): 12%
- remaining activity at 2 µM ([35]; 2.0 μM): 5%
- remaining activity at 0.2 µM ([36]; 0.2 μM): 22%
- remaining activity at 2 µM ([36]; 2.0 μM): 1%
- remaining activity at 0.2 µM [37]: 99%
- remaining activity at 0.2 µM [38]: 111%
